Patent EP3233044B1, “ANHYDROUS COSMETIC COMPOSITION FOR TOPICAL APPLICATION IN INTIMATE AREAS” (The Procter & Gamble Company, priority 2014, dated 2016)

Legend:
[1] = Thiol Vapor Pressure Suppression (TVPS) index, headspace butanethiol by zNose fast GC; assay type: physicochemical; details: 5 µl compound vs 100 µl of 1% v/v butanethiol in ethanol, 37 °C for 4 hours; percentage reduction in butanethiol peak area
Excerpt: Thiol Vapor Pressure Suppression (TVPS) index is a measure of the reduction in butanethiol concentration in the headspace by a compound, as measured using a fast GC instrument, the zNose 7100 (Electronic Sensor Technologies, Newbury Park, CA). Before any measurements the instrument is calibrated according to manufacturer's instructions under the same experimental settings. The instrument has a DB-5 column (EST Part No.SYS7100C5, Electronic Sensor Technologies, Newbury Park, CA) 1 m in length, 0.25 µm phase thickness, and 0.25mm in diameter. […]
TVPS of a compound is measured in the following way: 100 µl ± 1 µl of a 1% v/v butanethiol (99%, purity) solution in ethanol (200 proof) is added into a 1 ml vial (8 x 40 mm). […]
The amount of butanethiol in the headspace is measured from the area of the peak on the chromatograph for butanethiol (ABtSH,Rx). To calculate the percentage of butanethiol reduction in the headspace, a control with the butanethiol solution without the volatile material is run in the same manner and the area is measured as well (ABtSH,C). TVPS is then measured as the percentage reduction in butanethiol area calculated using the following formula: TVPS = (ABtSH,C −ABtSH,Rx)/(ABtSH,C) × 100 [formula]

[2] = Solubility of Vitamin B5 derivatives in anhydrous stick formulations; assay type: physicochemical
Excerpt: Additional considerations regarding exemplary Vitamin B5 derivatives may apply. For example, in order to deliver Vitamin B5 (or a derivative thereof) from an anhydrous, hydrophobic, glycol free and antiperspirant free cosmetic stick, a corresponding matrix soluble form or derivative of Vitamin B5 must be used to achieve the desired benefits of hair softening, shave bump reduction and wound healing from shave cut damage. For example, if an incompatible or insoluble form of Vitamin B5 is used, such as panthenol, this will not form a homogenous one phase solution when the ingredients are blended and heated together from the melt.
As such, the Vitamin B5 derivative utilized should be soluble in the anhydrous, hydrophobic, glycol free and antiperspirant free matrix.

Row | Molecule | TVPS [1] | Solublility in hydrophobic Anhydrous, glycol free, antiperspirant free Stick formulations [2]
1 | CC(C)c1cccc(C(C)CC=O)c1 (stereo not drawn) [Florhydral] | 50.5 | –
2 | CC(=O)OCCCNC(=O)[C@H](OC(C)=O)C(C)(C)COC(C)=O [Panthenyl Triacetate] | – | Soluble
3 | Panthenyl Ethyl Ether | – | Soluble
